Consider 21 compounds from patent US12528826B2, “[1,4]oxazepino[2,3-c]quinolinone derivatives as BCL6 inhibitors” (Cancer Research Technology Limited, priority 2019, dated 2026).

One assay concerns the target T1, Trx-6×His-BCL6 (human BCL6 BTB domain covering amino-acid sequence 5-129) (Homo sapiens, UniProt P41182).
T1 construct: made in house
Briefly: HTRF assay (BCL6 / BCOR peptide). The settings on record: 1 nM Trx-6×His-BCL6, 300 nM BCOR-AF633 peptide, 2 hours incubation at room temperature. The format is binding. Here is the method: After 2 hours incubation at room temperature the plate was read on a Pherastar FSX (BMG Labtech) plate reader equipped with 337 nm laser excitation filter, a first emission filter at 620 nm and a second emission filter at 665 nm. The % inhibition at each concentration was calculated by normalising FRET ratio to the appropriate high (DMSO with all reagents) and low (DMSO without BCL6) controls.
Background: Time-resolved FRET reads energy transfer from a long-lived donor to a nearby acceptor.
With “(S)-10-((5-chloro-2-((R)-3,3-difluoro-5-hydroxypiperidin-1-yl)pyrimidin-4-yl)amino)-2-cyclopropyl-3,3-difluoro-7-methyl-1,2,3,4-tetrahydro-[1,4]oxazepino[2,3-c]quinolin-6(7H)-one:(S)-10-((5-chloro-2-((S)-3,3-difluoro-5-hydroxypiperidin-1-yl)pyrimidin-4-yl)amino)-2-cyclopropyl-3,3-difluoro-7-methyl-1,2,3,4-tetrahydro-[1,4]oxazepino[2,3-c]quinolin-6(7H)-one (1:1) [Example 12e]”, the “HTRF avg pIC50” value came to 8.32.

The same assay, now with this note: 1 nM Trx-6×His-BCL6, 300 nM BCOR-AF633 peptide, 2 hours incubation at room temperature; read-out: HTRF avg pIC50 (converted).
Regarding `Cn1c(=O)c2c(c3cc(Nc4nc(N5CC[C@@H](F)[C@@H](F)C5)ncc4F)ccc31)N[C@@H](C1CC1)C(F)(F)CO2` (racemic) [Example 10d, (S)-10-((5-fluoro-2-((3S,4R)-3,4-difluoropiperidin-1-yl)pyrimidin-4-yl)amino)-2-cyclopropyl-3,3-difluoro-7-methyl-1,2,3,4-tetrahydro-[1,4]oxazepino[2,3-c]quinolin-6(7H)-one; (S)-10-((5-fluoro-2-((3R,4S)-3,4-difluoropiperidin-1-yl)pyrimidin-4-yl)amino)-2-cyclopropyl-3,3-difluoro-7-methyl-1,2,3,4-tetrahydro-[1,4]oxazepino[2,3-c]quinolin-6(7H)-one], the IC50 is 20.9 nM.

On to `Cn1c(=O)c2c(c3cc(Nc4nc(N5CCNC(C(F)F)C5)ncc4Cl)ccc31)N[C@@H](C1CC1)C(F)(F)CO2` (stereo partly drawn) [Example 12x26, (2S)-10-((5-chloro-2-(3-(difluoromethyl)piperazin-1-yl)pyrimidin-4-yl)amino)-2-cyclopropyl-3,3-difluoro-7-methyl-1,2,3,4-tetrahydro-[1,4]oxazepino[2,3-c]quinolin-6(7H)-one], for which the IC50 was 1.91 nM.

For the compound `Cn1c(=O)c2c(c3cc(Nc4nc(N5C[C@H](O)C[C@H](F)C5)ncc4Cl)ccc31)N[C@@H](C1CC1)C(F)(F)CO2` [Example 9a-1, (S)-10-((5-chloro-2-((3S,5R)-3-fluoro-5-hydroxypiperidin-1-yl)pyrimidin-4-yl)amino)-2-cyclopropyl-3,3-difluoro-7-methyl-1,2,3,4-tetrahydro-[1,4]oxazepino[2,3-c]quinolin-6(7H)-one], the IC50 was 1.82 nM.

As for `CC1CN(c2ncc(Cl)c(Nc3ccc4c(c3)c3c(c(=O)n4C)OCC(F)(F)[C@H](C4CC4)N3)n2)CC(C)S1(=O)=O` (stereo partly drawn) [Example 12x11, (2S)-10-((5-chloro-2-(2,6-dimethyl-1,1-dioxidothiomorpholino)pyrimidin-4-yl)amino)-2-cyclopropyl-3,3-difluoro-7-methyl-1,2,3,4-tetrahydro-[1,4]oxazepino[2,3-c]quinolin-6(7H)-one], the IC50 is 1.62 nM.

With `CN(CCC(C)(C)O)c1ncc(Cl)c(Nc2ccc3c(c2)c2c(c(=O)n3C)OCC(F)(F)[C@H](C3CC3)N2)n1` [Example 9v, (S)-10-((5-chloro-2-((3-hydroxy-3-methylbutyl)(methyl)amino)pyrimidin-4-yl)amino)-2-cyclopropyl-3,3-difluoro-7-methyl-1,2,3,4-tetrahydro-[1,4]oxazepino[2,3-c]quinolin-6(7H)-one], the IC50 was 4.68 nM.

Take `Cn1c(=O)c2c(c3cc(Nc4nc(N5CCCC6(CC6)C5)ncc4Cl)ccc31)N[C@@H](C1CC1)C(F)(F)CO2` [Example 11l, (S)-10-((5-chloro-2-(5-azaspiro[2.5]octan-5-yl)pyrimidin-4-yl)amino)-2-cyclopropyl-3,3-difluoro-7-methyl-1,2,3,4-tetrahydro-[1,4]oxazepino[2,3-c]quinolin-6(7H)-one]: the IC50 was 44.7 nM.

Turning to `CC1CC(CC(=O)N2CC(F)(F)C2)CN(c2ncc(Cl)c(Nc3ccc4c(c3)c3c(c(=O)n4C)OCC(F)(F)[C@H](C4CC4)N3)n2)C1` (single isomer, unassigned) [Example 12x17a], the IC50 was 3.98 nM.

Take `Cn1c(=O)c2c(c3cc(Nc4nc(N5CCCC(C)(F)C5)ncc4Cl)ccc31)N[C@@H](C1CC1)C(F)(F)CO2` (mixture of isomers) [Example 11z, (S)-10-((5-chloro-2-((R)-3-fluoro-3-methylpiperidin-1-yl)pyrimidin-4-yl)amino)-2-cyclopropyl-3,3-difluoro-7-methyl-1,2,3,4-tetrahydro-[1,4]oxazepino[2,3-c]quinolin-6(7H)-one:(S)-10-((5-chloro-2-((S)-3-fluoro-3-methylpiperidin-1-yl)pyrimidin-4-yl)amino)-2-cyclopropyl-3,3-difluoro-7-methyl-1,2,3,4-tetrahydro-[1,4]oxazepino[2,3-c]quinolin-6(7H)-one (1:1)]: the IC50 was 13.2 nM.

`C[C@H]1C[C@@H](N)CN(c2ncc(Cl)c(Nc3ccc4c(c3)c3c(c(=O)n4C)OCC(F)(F)[C@H](C4CC4)N3)n2)C1` [Example 12c, (S)-10-((2-((3R,5S)-3-amino-5-methylpiperidin-1-yl)-5-chloropyrimidin-4-yl)amino)-2-cyclopropyl-3,3-difluoro-7-methyl-1,2,3,4-tetrahydro-[1,4]oxazepino[2,3-c]quinolin-6(7H)-one]: the IC50 is 2.95 nM.

`CC(=O)N1C2CCC1CN(c1ncc(Cl)c(Nc3ccc4c(c3)c3c(c(=O)n4C)OCC(F)(F)[C@H](C4CC4)N3)n1)C2` (single isomer, unassigned) [Example 7b]: the IC50 was 1.62 nM.

Consider `CC(=O)N1CC2CCC(C1)N2c1ncc(Cl)c(Nc2ccc3c(c2)c2c(c(=O)n3C)OCC(F)(F)[C@H](C3CC3)N2)n1` (single isomer, unassigned) [Example 7a], for which the IC50 was 0.776 nM.

For the compound `Cn1c(=O)c2c(c3cc(Nc4cc(N5CCC(F)(F)CC5)ncc4Cl)ccc31)N[C@@H](C1CC1)C(F)(F)CO2` [Example 13b], the IC50 was 30.9 nM.

Consider `Cn1c(=O)c2c(c3cc(Nc4nc(N5CC(C)(F)C5)ncc4Cl)ccc31)N[C@@H](C1CC1)C(F)(F)CO2` [Example 1m, (S)-10-((5-chloro-2-(3-fluoro-3-methylazetidin-1-yl)pyrimidin-4-yl)amino)-2-cyclopropyl-3,3-difluoro-7-methyl-1,2,3,4-tetrahydro-[1,4]oxazepino[2,3-c]quinolin-6(7H)-one], for which the IC50 is 9.33 nM.

For `Cn1c(=O)c2c(c3cc(Nc4nc(N5CC(F)(F)C[C@H]5CO)ncc4Cl)ccc31)N[C@@H](C1CC1)C(F)(F)CO2` [Example 12x47, (S)-10-((5-chloro-2-((S)-4,4-difluoro-2-(hydroxymethyl)pyrrolidin-1-yl)pyrimidin-4-yl)amino)-2-cyclopropyl-3,3-difluoro-7-methyl-1,2,3,4-tetrahydro-[1,4]oxazepino[2,3-c]quinolin-6(7H)-one], the IC50 is 8.32 nM.

Take `COC1(C)CN(c2ncc(Cl)c(Nc3ccc4c(c3)c3c(c(=O)n4C)OCC(F)(F)[C@H](C4CC4)N3)n2)C1` [Example 11x, (S)-10-((5-chloro-2-(3-methoxy-3-methylazetidin-1-yl)pyrimidin-4-yl)amino)-2-cyclopropyl-3,3-difluoro-7-methyl-1,2,3,4-tetrahydro-[1,4]oxazepino[2,3-c]quinolin-6(7H)-one]: the IC50 is 3.55 nM.

`C[C@H]1C[C@@H](O)CN(c2cc(Nc3ccc4c(c3)c3c(c(=O)n4C)OCC(F)(F)[C@H](C4CC4)N3)c(F)cn2)C1` [Example 13f05, (S)-2-cyclopropyl-3,3-difluoro-10-((5-fluoro-2-((3R,5S)-3-hydroxy-5-methylpiperidin-1-yl)pyridin-4-yl)amino)-7-methyl-1,2,3,4-tetrahydro-[1,4]oxazepino[2,3-c]quinolin-6(7H)-one]: the IC50 was 6.61 nM.

On to `Cc1noc(-c2cc(Nc3ccc4c(c3)c3c(c(=O)n4C)OCC(F)(F)[C@H](C4CC4)N3)c(Cl)cn2)n1` [Example 4a, (S)-10-((5-chloro-2-(3-methyl-1,2,4-oxadiazol-5-yl)pyridin-4-yl)amino)-2-cyclopropyl-3,3-difluoro-7-methyl-1,2,3,4-tetrahydro-[1,4]oxazepino[2,3-c]quinolin-6(7H)-one], for which the IC50 was 3.47 nM.

For the compound `Cn1c(=O)c2c(c3cc(Nc4nc(N5CC6(CN(CC7CC7(F)F)C6)C5)ncc4Cl)ccc31)N[C@@H](C1CC1)C(F)(F)CO2` (stereo partly drawn) [Example 9x, (2S)-10-((5-chloro-2-(6-((2,2-difluorocyclopropyl)methyl)-2,6-diazaspiro[3.3]heptan-2-yl)pyrimidin-4-yl)amino)-2-cyclopropyl-3,3-difluoro-7-methyl-1,2,3,4-tetrahydro-[1,4]oxazepino[2,3-c]quinolin-6(7H)-one], the IC50 was 3.47 nM.

As to `CCNC(=O)C1CN(c2ncc(Cl)c(Nc3ccc4c(c3)c3c(c(=O)n4C)OCC(F)(F)[C@H](C4CC4)N3)n2)CCC1(F)F` (mixture of isomers) [Example 9j, (R)-1-(5-chloro-4-(((S)-2-cyclopropyl-3,3-difluoro-7-methyl-6-oxo-1,2,3,4,6,7-hexahydro-[1,4]oxazepino[2,3-c]quinolin-10-yl)amino)pyrimidin-2-yl)-N-ethyl-4,4-difluoropiperidine-3-carboxamide; (S)-1-(5-chloro-4-(((S)-2-cyclopropyl-3,3-difluoro-7-methyl-6-oxo-1,2,3,4,6,7-hexahydro-[1,4]oxazepino[2,3-c]quinolin-10-yl)amino)pyrimidin-2-yl)-N-ethyl-4,4-difluoropiperidine-3-carboxamide], the IC50 was 4.17 nM.

As to `Cn1c(=O)c2c(c3cc(Nc4nc(N5CC[C@@H](F)[C@@H](F)C5)ncc4Cl)ccc31)N[C@@H](C1CC1)C(F)(F)CO2` (racemic) [Example 10a, (S)-10-((5-chloro-2-((3S,4R)-3,4-difluoropiperidin-1-yl)pyrimidin-4-yl)amino)-2-cyclopropyl-3,3-difluoro-7-methyl-1,2,3,4-tetrahydro-[1,4]oxazepino[2,3-c]quinolin-6(7H)-one; (S)-10-((5-chloro-2-((3R,4S)-3,4-difluoropiperidin-1-yl)pyrimidin-4-yl)amino)-2-cyclopropyl-3,3-difluoro-7-methyl-1,2,3,4-tetrahydro-[1,4]oxazepino[2,3-c]quinolin-6(7H)-one], the IC50 was 12.3 nM.
